Results as given in patent US20230406883A1, “COMPOUNDS AND THEIR USE IN TREATMENT OF TACHYKININ RECEPTOR MEDIATED DISORDERS” (Embark Biotech ApS, priority 2020, published 2023).
pEC50: −log10 of the molar value. “And” between values parts separate entries of the source, which are not always exact repeats. Identical values can stand only once. Numbered stars: 1 amine (or outer) side, 2 acyl side, 3 side chain; on linkers, the order of the positions; unused ones are H or OH. Square brackets hold non-standard residues; d marks the D form. Peptide text beside a SMILES is read from it. * marks the point of attachment. C18 diacid = O=C(O)CCCCCCCCCCCCCCCCC(=O)*; γGlu = O=C(O)[C@H](CCC(=O)[*:2])N[*:1]; NMeL = CN[C@@H](CC(C)C)C(=O)O; hSer = N[C@@H](CCO)C(=O)O; Nle = CCCC[C@H](N)C(=O)O; AEEA = NCCOCCOCC(=O)O

Assays:
hNK2R = molecular target: T1, hNK2R (Homo sapiens, UniProt P21452); assay: Hithunter cAMP assay (Gs-coupling) in transfected COS-7 cells; format: cell-based; settings: COS-7 cells
T1 construct: host or cells: COS-7
T1 sequence (P21452 1-398): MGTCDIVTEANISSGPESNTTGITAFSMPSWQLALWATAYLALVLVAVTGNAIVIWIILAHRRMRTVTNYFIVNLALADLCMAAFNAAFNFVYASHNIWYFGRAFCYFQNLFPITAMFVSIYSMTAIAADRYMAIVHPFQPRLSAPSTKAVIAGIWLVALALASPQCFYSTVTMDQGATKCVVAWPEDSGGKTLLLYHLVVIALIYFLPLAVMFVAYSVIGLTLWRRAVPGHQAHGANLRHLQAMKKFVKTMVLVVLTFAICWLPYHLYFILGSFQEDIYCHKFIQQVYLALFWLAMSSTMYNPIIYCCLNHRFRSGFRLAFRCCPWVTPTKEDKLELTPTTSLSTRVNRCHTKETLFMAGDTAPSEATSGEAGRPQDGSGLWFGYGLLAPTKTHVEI
Method: As a secondary measure of agonist-induced G-protein coupled receptor (GPCR) activation cyclin adenosine monophosphate (cAMP) was measured by the Hithunter cAMP-assay from DiscoverX. Assays were carried out using COS-7 cells transiently transfected by calcium phosphate transfection with a vector pcDNA3.1(+) encoding one of the indicated receptors (Genscript). Briefly, DNA mixed with CaCl2 (2 M) and TE-buffer (10 mM Tris-HCl, 1 mM EDTA, pH 7.5) was dropwise added to 2×HBS (50 mM HEPES, 280 mM NaCl, 1.5 mM NaH2PO4, pH 7.2) and incubated for 45 min at room temperature (22±2° C.). The mixture and a final concentration of 100 μM Chloroquine were added to the cells and left to incubate for 5 hours at 37° C. under standard cell culture conditions (10% CO2) before changing medium to fresh maintenance medium.
The cAMP-assay takes advantage of the tachykinin receptors' ability to induce production of the cAMP second messenger upon agonist (ligand) binding on receptor expressing cells. Production of cAMP stems from receptor coupling to Gs-protein although coupling to Gq-protein (IP3-production) is considered the primary signalling mechanism by tachykinin receptors.
The assay was performed the day after transfection. Briefly, maintenance medium was aspirated, and plates were washed ×1 in HBSS before adding assay buffer (HBSS+1 mM IBMX), pre-incubated for 30 min at 37° C. followed by 15 min incubation with agonist (ligand) at 37° C. After incubation, plates were subjected to cell lysis and anti-cAMP-antibody incubation as described by manufacturer. Luminescence was measured with EnVision Multimode Plate Reader from Perkin Elmer.

in vivo = assay: in vivo; design: species or system mice; settings: mouse; for half-life: sc, 0.5 mg/kg
Method: Pharmacokinetics: To evaluate the in vivo half-life of individual peptide analogues we used wild type lean mice at around 10 weeks of age injected once with a peptide analogue. For each sample time point 3-4 mice were used and blood was drawn from the submandibular vein at indicated time points following injection. Prior to injection mice were given ad libitum access to standard chow diet. Mice were subcutaneously injected with 0.5 mg/kg peptide analogue in a volume of 2 ml/kg. The amount of peptide analogue and metabolite(s) present in blood samples were measured by TF-LC-MS and MetID-LC-MS, respectively. Sample preparation: One volume of plasma is precipitated with three volumes of ethanol (with internal standard). The mixture is centrifuged at 13000 g for 20 min. One volume of supernatant is diluted with two volumes of Milli-Q water (1% formic acid). Calibration curve: peptide analogue was spiked into blank mouse plasma. Range: 0.5 to 2000 nM (linear 1/x2).

[1] = Energy expenditure and weight loss pharmacodynamics in DIO mice; format: in vivo; design: Energy expenditure efficacy (change relative to vehicle control) / Weight loss efficacy (change relative to vehicle control): concentration or dose not given beside the values; settings: for Energy expenditure EC50 / Energy expenditure efficacy (change relative to vehicle control) / Weight loss EC50 / Weight loss efficacy (change relative to vehicle control): daily s.c. injections for nine days
Method: Indirect calorimetry was used to evaluate the ability of individual peptide analogues to dose-dependently increase energy expenditure (EE) we used metabolic cages and indirect calorimetry measured by the Promethion system. To this end, oxygen consumption was used as a surrogate measure for EE. Substrate preference (fat or carbohydrate) was evaluated using the respiratory exchange ratio (RER). In parallel, behavioral information such as walking distance and water and food intake were recorded.
Prior to experimentation, DIO mice were transferred to habituation cages for at least 10 days (5 days outside and at least 5 days in the Sable Systems gas analyzer module) to acclimatize. For all in vivo compound tests for EE evaluation, mice received subcutaneous injections between 2 and 4 pm.
Energy expenditure and weight loss pharmacodynamics: To evaluate the ability of individual peptide analogues to dose-dependently increase EE by indirect calorimetry in DIO mice. Body weights were monitored from beginning of habituation until end of experiment. After habituation, mice were treated with daily injections of NKA(4-10) analogues at four different doses or vehicle by daily subcutaneous injections for nine days.
EE increase over vehicle was calculated as percent of mean oxygen consumption over a 30-hour period after injection. Prior to injection peptide analogues were dissolved and diluted in in vivo buffer. In order to take into account, the different half-lives for the compounds tested, the doses for each compound were calculated based on the given compound's individual pk-profiles.

SMILES	pEC50 (hNK2R)	hNK2R, cAMP Efficacy (hNK2R)	Plasma exposure [2 h] (in vivo) [µM]	Plasma exposure [26 h] (in vivo) [nM]	AUC (in vivo; 330 nmol/kg) [µM·h]	Cmax (in vivo; 330 nmol/kg) [µM]	half-life (in vivo; Half-life) [h]	Reduced weight loss efficacy compared to compound 304, 344 and 383 [1]	Energy expenditure EC50 [1] [nmol/kg]	Energy expenditure efficacy (change relative to vehicle control) [1] [%]	Weight loss EC50 [1] [nmol/kg]	Weight loss efficacy (change relative to vehicle control) [1] [%]	half-life (in vivo) [h]
CCCC[C@H](NC(=O)[C@H](CC(C)C)N(C)C(=O)CNC(=O)[C@@H](NC(=O)[C@H](Cc1ccc(O)cc1)NC(=O)[C@H](CCCCN)NC(=O)[C@H](CC(=O)O)NC(=O)COCCOCCNC(=O)COCCOCCNC(=O)CC[C@H](NC(=O)CCCCCCCCCCCCCCCCC(=O)O)C(=O)O)C(C)C)C(N)=O [compound 305, *Asp;Lys;Tyr;Val;Gly;NmLeu;Nle;NH2] ({C18 diacid-γGlu-AEEA-AEEA}-DKYVG[NMeL][Nle]-NH2)	9.15 and ~9.10	50% and 70%	5.364	183	28.8	3.45	5.5	approximately 50%	34	11	69	6	
COCC[C@H](NC(=O)[C@H](CC(C)C)N(C)C(=O)CNC(=O)[C@@H](NC(=O)[C@H](Cc1ccc(O)cc1)NC(=O)[C@H](CCCCN)NC(=O)[C@H](CC(=O)O)NC(=O)COCCOCCNC(=O)COCCOCCNC(=O)CC[C@H](NC(=O)CCCCCCCCCCCCCCCCC(=O)O)C(=O)O)C(C)C)C(N)=O [compound 344, *Asp;Lys;Tyr;Val;Gly;NmLeu;Metox;NH2] ({C18 diacid-γGlu-AEEA-AEEA}-DKYVG[NMeL][hSer](Me)-NH2)	7.55	96% and 100%					≥ 10		13	12	130	10	10.3
COCC[C@H](NC(=O)[C@H](CC(C)C)N(C)C(=O)CNC(=O)[C@@H](NC(=O)[C@H](Cc1ccccc1)NC(=O)[C@H](CCCCN)NC(=O)[C@H](CC(=O)O)NC(=O)COCCOCCNC(=O)COCCOCCNC(=O)CC[C@H](NC(=O)CCCCCCCCCCCCCCCCC(=O)O)C(=O)O)[C@@H](C)O)C(N)=O [compound 383, *Asp;Lys;Phe;Thr;Gly;NmLeu;Metox;NH2] ({C18 diacid-γGlu-AEEA-AEEA}-DKFTG[NMeL][hSer](Me)-NH2)	~7.96	89%					≥ 10		110	11	83	11	
CCCC[C@H](NC(=O)[C@H](CC(C)C)N(C)C(=O)CNC(=O)[C@@H](NC(=O)[C@H](Cc1ccccc1)NC(=O)[C@H](CCCCN)NC(=O)[C@H](CC(=O)O)NC(=O)COCCOCCNC(=O)COCCOCCNC(=O)CC[C@H](NC(=O)CCCCCCCCCCCCCCCCC(=O)O)C(=O)O)C(C)C)C(N)=O [compound 304, *Asp;Lys;Phe;Val;Gly;NmLeu;Nle;NH2]	8.64	100%					≥ 10		94	11	16	12	
